# Assay results published in publication PMC9091336, “Functional Characterization of Odorant Binding Protein PyasOBP2 From the Jujube Bud Weevil, Pachyrhinus yasumatsui (Coleoptera: Curculionidae)” (Frontiers in Physiology, 2022).
# Tests used:
# [1] = biological target: PyasOBP2; experiment: Fluorescence competitive binding assay with 1-NPN as probe; set-up: species or system Pachyrhinus yasumatsui; details: for IC50 / Ki: PyasOBP2 2 μM, 1-NPN 2 μM; for IC50: ligand 0 to 20 μM, three replicates; for Ki: dissociation constant calculated from IC50 by Ki=IC50/(1+[1-NPN]/K1-NPN); for binding to PyasOBP2 (in words): fluorescence competitive binding, ligand up to 20 μM
# Procedure: (§1) Fluorescence competitive binding assays were carried out on an F-2700 fluorescence spectrophotometer (Hitachi, Tokyo, Japan) to determine the binding affinity of PyasOBP2. 1-N-phenyl-naphthylamine (1-NPN) was used as a fluorescent probe ([Pelosi et al., 2006]) with excitation at 337 nm, and the emission spectra were measured from 370 to 550 nm. Based on gas chromatography-mass spectrometry (GC-MS) and previous studies ([Yan et al., 2017]; [Yan et al., 2020]), 38 volatiles derived from Z. jujuba were selected as putative ligands for fluorescence competitive binding assays (Table 2). 1-NPN and all ligands used in binding assays were diluted in methanol to 1 mM stock solutions. To measure the binding affinity of PyasOBP2 with 1-NPN, PyasOBP2 solution (with a final concentration of 2 μM) was titrated with 1-NPN to final concentrations ranging from 2 to 20 μM. In ligand-binding assays, each ligand with a concentration ranging from 0 to 20 μM was added into a mixture of PyasOBP2 (2 μM) and 1-NPN (2 μM), and maximal fluorescence intensities were plotted against ligand concentrations based on three replicates.
# The dissociation constant K1-NPN (for PyasOBP2 binding with 1-NPN) was calculated with Scatchard plotting of binding data in the GraphPad Prism 8.0 Software ([Sideris et al., 1992]). The dissociation constant (Ki) of each ligand was calculated with Eq. 3, as described by [Cui et al. (2018)]. The ligand binding affinity to PyasOBP2 was considered as very strong (Ki≤5 μM), strong (5 μM<Ki≤10 μM), moderate (10 μM<Ki≤20 μM) and weak (Ki>20 μM) in this study. Ki=IC50/(1+[1−NPN]/K1−NPN) (3)
# [2] = biological target: PyasOBP2; experiment: Binding of fluorescent probe 1-NPN to PyasOBP2 (titration, Scatchard plot); set-up: species or system Pachyrhinus yasumatsui; details: PyasOBP2 2 μM titrated with 1-NPN 2 to 20 μM, read-out: dissociation constant of PyasOBP2 with 1-NPN
# Procedure: as §1, with “To measure the binding affinity of PyasOBP2 with 1-NPN, PyasOBP2 solution (with a final concentration of 2 μM) was titrated with 1-NPN to final concentrations ranging from 2 to 20 μM.” left out
# The dissociation constant K1-NPN (for PyasOBP2 binding with 1-NPN) was calculated with Scatchard plotting of binding data in the GraphPad Prism 8.0 Software ([Sideris et al., 1992]). The dissociation constant (Ki) of each ligand was calculated with Eq. 3, as described by [Cui et al. (2018)]. […]
# [3] = test system: adult P. yasumatsui antennae; set-up: method as in Yan et al., 2017; Yan et al., 2020; details: ref Yan et al., 2017, 2020; cited from earlier work
# [4] = test system: P. yasumatsui adults; set-up: method as in Yan et al., 2017; Yan et al., 2020; details: volatiles emitted from jujube shoots, ref Yan et al., 2017, 2020; cited from earlier work
SMILES,IC50 [1] [µM],Ki [1] [µM],further results
C=CC(C)(O)CCC=C(C)CCC=C(C)C (mixture of isomers) [Nerolidol],7.54,6.41,Ki ([1]; listed as nerolidol): < 10 µM
"c1ccc(Nc2cccc3ccccc23)cc1 [1-NPN, 1-N-phenyl-naphthylamine]",,,Kd [2]: 5.66 µM
C=CC(O)CC (centres unmarked) [1-Penten-3-ol],> 20,,
CC(C)=Cc1ccccc1 [2-Methyl-1-phenylpropene],5.42,4.61,
CC/C=C\CCOC(=O)C(C)CC (stereo not drawn) [2-Methylbutyric Acid cis-3-Hexen-1-yl Ester],11.9,10.1,
CC1=CCC2C(C1)C2(C)C (centres unmarked) [3-Carene],> 20,> 20,
N#Cc1ccccc1 [Benzonitrile],> 20,,binding to PyasOBP2 (in words) [1]: could not bind to PyasOBP2
OCc1ccccc1 [Benzyl alcohol],16.2,12,
CCCCOC(C)=O [Butyl acetate],> 20,> 20,
C=C1C2CCC(C2)C1(C)C (centres unmarked) [Camphene],8.33,7.08,
CCCCCC=O [Caproaldehyde],10.9,8.03,
CCCCOC(=O)c1ccccc1C(=O)OCCCC [Dibutyl phthalate],10.5,7.73,
C=C(C)[C@H]1CC=C(C)CC1 [Dipentene],7.05,5.99,Ki ([1]; listed as dipentene): < 5 µM
CCCCCCCCCCCC [Dodecane],> 20,,binding to PyasOBP2 (in words) [1]: could not bind to PyasOBP2
CCOC(=O)C(C)CC (centres unmarked) [Ethyl 2-methylbutyrate],> 20,,
CCCC(=O)OCC [Ethyl butyrate],3.55,3.02,Ki ([1]; listed as ethyl butyrate): < 5 µM
CCOC(=O)CC(C)C [Ethyl isovalerate],> 20,,
CCCCC(=O)OCC [Ethyl valerate],> 20,,
CC12CCC(CC1)C(C)(C)O2 [Eucalyptol],15.1,12.8,
C=CCc1ccc(O)c(OC)c1 [Eugenol],> 20,,binding to PyasOBP2 (in words) [1]: could not bind to PyasOBP2

SMILES,IC50 [1] [µM],Ki [1] [µM],further results
CC(C)=CCCC(C)=CC#N [Geranyl nitrile],> 20,,binding to PyasOBP2 (in words) [1]: could not bind to PyasOBP2
CCCCCCC=O [Heptaldehyde],15.4,11.4,
CC(C)C=O [Isobutyraldehyde],13,11,
C=CC(C)(O)CCC=C(C)C (centres unmarked) [Linalool],11.6,9.88,Ki ([1]; listed as linalool): < 10 µM
CCCCCCCC/C=C\CCCCCCCC(=O)OC [Methyl oleate],> 20,,binding to PyasOBP2 (in words) [1]: could not bind
CCCCCCCCCCCCCCCC(=O)OC [Methyl palmitate],> 20,> 20,binding to PyasOBP2 (in words) [1]: could not bind; EAG response [3]: strong EAG responses; attraction of adults [4]: significantly attracted
C=CC(=C)CCC=C(C)C [Myrcene],11.8,8.92,
CCCCCCCCC=O [Nonanal],15.6,13.2,Ki ([1]; listed as nonanal): < 20 µM; EAG response [3]: strong EAG responses; attraction of adults [4]: significantly attracted
C=CC(C)=CCC=C(C)C [Ocimene],10.5,8.92,Ki ([1]; listed as ocimene): < 10 µM; EAG response [3]: strong EAG responses; attraction of adults [4]: significantly attracted
CCCCCCCC=O [Octanal],7.81,6.64,
CC(C)=CCC/C(C)=C/CC/C(C)=C/CC/C=C(\C)CC/C=C(\C)CCC=C(C)C [Squalene],> 20,,binding to PyasOBP2 (in words) [1]: could not bind
CC/C=C\CCO [cis-3-Hexen-1-ol],8.06,6.85,Ki ([1]; listed as cis-3-hexen-1-ol): < 10 µM
CC/C=C\CCOC(=O)CC(C)C [cis-3-Hexenyl 3-methylbutanoate],> 20,,
CC/C=C\CCOC(C)=O [cis-3-Hexenyl acetate],> 20,,
CCC/C=C/C=O [trans-2-Hexen-1-al],15.8,13.4,
CCC/C=C/CO [trans-2-Hexen-1-ol],8.93,6.6,Ki ([1]; listed as trans-2-hexen-1-ol): < 10 µM
CC1=CC[C@H](C(C)C)C=C1 [α-Phellandrene],10.7,9.12,
CC1=CCC2CC1C2(C)C (stereo not drawn) [α-Pinene],10.8,9.18,
C=C/C(C)=C/C/C=C(\C)CCC=C(C)C [α-farnesene],,,attraction of adults [4]: significantly attracted
C=C1CC/C=C(\C)CC[C@@H]2[C@@H]1CC2(C)C [β-Caryophyllene],> 20,,
